Here are results for five compounds from US10052318B2, “Glutamate agents in the treatment of mental disorders” (YALE UNIVERSITY, priority 2005, dated 2018).

The subject of data set [1] is animal model of Amyotrophic Lateral Sclerosis (ALS). As to conditions: by increasing glutamate transport, L-[3H] glutamate uptake into cortical membrane; Rothstein et al. 2005; cited from earlier work.
A further data set deals with C57BL/6J mice. Briefly: Tail suspension test. Type of data set: in vivo. The following applies: after 7 days, 1 injection/day, versus saline.
The test system of data set [2] is glial glutamate uptake transporter. As to conditions: Rothstein et al., Nature 2005; cited from earlier work.
In data set [3] the test system is transgenic mice expressing cholera toxin subunit in dopamine D1 receptor-expressing limbic cortical cells. As to conditions: cited from earlier work; for perseverative (OCD-like) behaviors: baseline behaviors of the transgenic mice.
The test system of data set [4] is patient with SRI-refractory OCD. Briefly: Case report two: N-acetylcysteine augmentation of fluvoxamine in SRI-refractory OCD. In kind it is in vivo, human. From the text: A person presented to our clinic seeking help for persistent and severe OCD symptoms. Diagnosis of OCD was confirmed using the Structured Clinical Interview for DSM-IV Axis I Disorders-Clinician Version. First et al., Structured clinical interview for DSM-IV Axis I Disorders (SCID-I Clinician Version), American Psychiatric Press, Inc., Washington, D.C., 1997. After informed consent, a person was admitted to the Clinical Neuroscience Research Unit of the Abraham Ribicoff Research Facilities (New Haven, Conn.) and treated clinically with an off-label use of NAC augmentation of fluvoxamine. OCD symptoms were followed using weekly Yale-Brown Obsessive-Compulsive Scale (Y-BOCS) ratings. NAC (United States Pharmacia grade and in capsule form) was initiated at a starting dose of 600 mg PO daily and titrated upward to a total daily dose of 3 grams per day over 6 weeks. NAC was continued at the dose of 3 grams per day for an additional seven weeks. Fluvoxamine 300 mg was continued throughout the NAC treatment period. A person remained on the inpatient unit throughout the treatment period and received supportive psychotherapy. […] In fact, they were resistant to implementing behavioral interventions given the past failure of such interventions.

Data set [5] deals with patients with treatment-resistant depression. In words: Riluzole addition in control group with treatment-resistant depression. As to conditions: control group with treatment-resistant depression alone.
For data set [6], the system named is patient with Trichotillomania. Briefly: Case report: riluzole addition in trichotillomania. Type of data set: in vivo, human.
In data set [7] the test system is patient with severe, chronic TTM. In words: Case report one: riluzole in trichotillomania and recurrent major depression. In kind it is in vivo, human.
Data set [8] relates to patients with anxiety symptoms. In words: Riluzole addition in patients with anxiety and mood symptoms (HAM-A). In kind it is in vivo, human.

With `CO/N=C(\C(=O)N[C@@H]1C(=O)N2C(C(=O)O)=C(CSc3nc(=O)c(=O)[nH]n3C)CS[C@H]12)c1csc(N)n1` [Ceftriaxone, ceftriaxone], the neuroprotection entry in data set [1] is on record as “neuroprotective”. For the same compound, the “decrease in the immobility time” value in the data set on C57BL/6J mice (C57BL/6J males, 10 animals/group) is ~20%. Further, in the data set with C57BL/6J mice, the bouts of immobility entry is given as “decreased bouts of immobility” and the latency result is given as “trend for increased latency”. Besides, the “upregulation of the glial glutamate transporter” value in data set [2] was “upregulated the glial glutamate transporter more so than many other drugs”.

As for `C[C@]12N[C@H](Cc3ccccc31)c1ccccc12` [MK-801], the “perseverative (OCD-like) behaviors” value in data set [3] was “worsen”.

For the compound `CC(=O)N[C@@H](CS)C(=O)O` [NAC, N-acetylcysteine], the Y-BOCS score entry in data set [4] (NAC 600 mg daily titrated to 3 grams per day over 6 weeks, continued seven weeks, fluvoxamine 300 mg) is reported as “dramatically decreased”. The side effects entry in data set [4] (NAC up to 3 grams per day) was “a few episodes of mild, brief right hand tingling and a single day of xerostomia”. For the same compound, in data set [4] (over the course of admission), the routine lab monitoring result was “no further abnormalities”. Also, in data set [4] (two month follow-up visit, same dose of NAC and fluvoxamine), the “OCD symptoms at follow-up” value is “remained improved”.

For the compound `NS(=O)(=O)c1cccc2c1c([N+](=O)[O-])cc1nc(O)c(O)nc12` [NBQX], in [3], the “perseverative (OCD-like) behaviors” value is “does not affect”. Also, the “worsening of OCD-like behaviors induced by MK-801” value in data set [3] (transgenic mice given MK-801) is “does not attenuate”.

Consider `Nc1nc2ccc(OC(F)(F)F)cc2s1` [Riluzole, riluzole], for which, in data set [5], the “HAM-D scores in response to riluzole” value is recorded as “significant improvement”. Also, the Trichotillomania symptoms entry in data set [6] (A person, riluzole up to 100 mg twice a day) is recorded as “cessation of Trichotollomania symptoms”. Further, the “Reduction in PITS score” value in data set [6] (after 6 weeks of riluzole addition to Lexapro 30 mg, 50 mg titrated to 100 mg twice a day) worked out at 74%. Moreover, the “Reduction in MGH Pulling Scale Score” value in [6] (after 12 weeks of treatment with riluzole) is listed as > 35%. Also, the “urges to pull hair at follow-up” value in data set [7] (72 weeks after initiating riluzole, 100 mg twice a day) was “minimal and readily ignored”. For the same compound, the “TTM ratings (PITS, MGH Hairpulling Scale)” value in data set [7] (at presentation PITS 23, MGH 17, after up-titration of riluzole) is on record as “corresponding fall”. For the same compound, the HAM-D at presentation in data set [7] (before riluzole, on escitalopram 30 mg daily) was found to be 26. Besides, the HAM-D in data set [7] (week 16, riluzole titrated from 50 mg twice a day to 200 mg daily) was found to be 7. The “urges to pull hair” value in data set [7] (with up-titration of riluzole to 150 mg and then 200 mg daily) is “vanished entirely”. For the same compound, the “reduction in HAM-A scores post study treatment” value in data set [8] (Subjects P3, P5, P6, P7, P11, P12) is ≥ 35%. In addition, in [8] (riluzole 50 mg twice a day), the “HAM-A scores for the group over time” value is given as “significantly improved” and the “tolerability / adverse effects” value was “well tolerated with no serious adverse effects noted”. For the same compound, the “Mean Pre-Treatment HAM-A” value in data set [8] (thirteen participants, before riluzole) was 18.2+/−6.2. Besides, the “Mean Post-Treatment HAM-A” value in [8] (thirteen participants, riluzole 50 mg twice a day added to existing pharmacotherapy) is reported as 12.8+/−7.2.
